Source: ChEMBL document CHEMBL4364305, “Medicinal leech antimicrobial peptides lacking toxicity represent a promising alternative strategy to combat antibiotic-resistant pathogens” (Eur J Med Chem, 2019)
≈ marks a conversion by molar mass, not a printed value. Calls of active or inactive are those of the source. The rule behind the calls is not given here. Residues, ends and D or L forms follow the SMILES beside them.

How the values were obtained:
Escherichia coli [1] = assay: Antibacterial activity against Escherichia coli MG1655 assessed as reduction in bacterial cell growth incubated for 24 hrs by microtiter dilution method; type: functional; settings: MG1655, 24 h
Chlamydia trachomatis = assay: Antibacterial activity against Chlamydia trachomatis D/UW-3/Cx infected in mouse McCoy cells assessed as reduction in infected cells preincubated for 2 hrs and measured after 48 hrs by immunofluorescence method; type: functional
Bacillus subtilis [2] = assay: Antibacterial activity against Bacillus subtilis 168 HT assessed as reduction in bacterial cell growth incubated for 24 hrs by microtiter dilution method; type: functional
Bacillus subtilis [3] = assay: Antibacterial activity against Bacillus subtilis 168 HT assessed as reduction in bacterial cell structural integrity at 0.5 antibacterial MIC incubated for 8 or 24 hrs by scanning electron microscopy; type: functional, organism-based
Lipid bilayer [4] = assay: Disruption of large POPC unilamellar vesicle membrane assessed as release of carboxyfluorescein measured after 1 min by fluorescence based method
Lipid bilayer [5] = assay: Disruption of large POPC:POPS unilamellar vesicle membrane assessed as release of carboxyfluorescein measured after 1 min by fluorescence based method
Lipid bilayer [6] = assay: Disruption of large POPC:DOPG unilamellar vesicle membrane assessed as release of carboxyfluorescein measured after 1 min by fluorescence based method
Lipid bilayer [7] = assay: Disruption of large POPS unilamellar vesicle membrane assessed as release of carboxyfluorescein measured after 1 min by fluorescence based method
Bacillus subtilis [8] = assay: Induction of morphological changes in Bacillus subtilis 168 HT assessed as cellular debris formation at 0.5 antibacterial MIC incubated for 8 or 24 hrs by scanning electron microscopy; type: functional, organism-based
[9] = Cytotoxicity against mouse McCoy cells assessed as cell viability at 0.5 to 4 times of antibacterial MIC incubated for 48 hrs by calcein AM and ethidium homodimer-1 staining based epifluorescence microscopic method relative to control; settings: read-out: Activity
Escherichia coli [10] = assay: Antibacterial activity against Escherichia coli MG1655 assessed as reduction in bacterial cell structural integrity at 0.5 antibacterial MIC incubated for 8 or 24 hrs by scanning electron microscopy; type: functional, organism-based
[11] = Cytotoxicity against mouse McCoy cells assessed as reduction in cell viability at 4 times of antibacterial MIC incubated for 48 hrs by calcein AM and ethidium homodimer-1 staining based epifluorescence microscopic method relative to control
[12] = Hemolytic activity in human Erythrocyte at 100 uM measured after 1 hr relative to control; type: ADME, cell-based; settings: erythrocytes, read-out: Activity
[13] = Hemolytic activity in human Erythrocyte at 50 uM measured after 1 hr relative to control; type: ADME, cell-based; settings: erythrocytes, read-out: Activity
[14] = Hemolytic activity in human Erythrocyte at 6.25 uM measured after 1 hr relative to control; type: ADME, cell-based; settings: erythrocytes, read-out: Activity

| SMILES | MIC (Escherichia coli [1]) | MIC90 (Chlamydia trachomatis) | MIC (Bacillus subtilis [2]) | also measured |
| --- | --- | --- | --- | --- |
| CC[C@H](C)[C@H](NC(=O)[C@H](CC(C)C)NC(=O)[C@@H](N)CS)C(=O)N[C@@H](CCSC)C(=O)N[C@@H](CCCCN)C(=O)N[C@H](C(=O)N[C@@H](CCCNC(=N)N)C(=O)N[C@@H](CCCNC(=N)N)C(=O)N[C@@H](CCCCN)C(=O)N[C@@H](CCCCN)C(=O)O)C(C)C (H-CLIMKVRRKK-OH) | 100 µM (≈ 128 µg/mL) | 12.5 µM (≈ 15.9 µg/mL) | 12.6 µM (≈ 16.1 µg/mL) |  |
| CC[C@H](C)[C@H](NC(=O)[C@H](CCCNC(=N)N)NC(=O)[C@H](CCSC)NC(=O)[C@@H](NC(=O)[C@H](CCCNC(=N)N)NC(=O)[C@@H](N)Cc1ccccc1)[C@@H](C)CC)C(=O)N[C@@H](CC(C)C)C(=O)N[C@@H](CCCNC(=N)N)C(=O)N[C@H](C(=O)N[C@@H](CC(C)C)C(=O)N[C@@H](CCCCN)C(=O)N[C@@H](CC(C)C)C(=O)O)C(C)C (H-FRIMRILRVLKL-OH) | 10.3 µM (≈ 16 µg/mL) | 3.1 µM (≈ 4.83 µg/mL) | 10.3 µM (≈ 16 µg/mL) | Activity (Bacillus subtilis [3]): Active; Activity (Lipid bilayer [4]): inactive; Activity (Lipid bilayer [5]): Dose-dependent effect; Activity (Lipid bilayer [6]): Dose-dependent effect; Activity (Lipid bilayer [7]): Dose-dependent effect; Activity (Bacillus subtilis [8]): inactive; viability at 48 h [9]: 100%; Activity (Escherichia coli [10]): Active |
| CC[C@H](C)[C@H](NC(=O)[C@H](CCCCN)NC(=O)[C@H](Cc1ccccc1)NC(=O)[C@H](CCCNC(=N)N)NC(=O)[C@H](CCCCN)NC(=O)[C@@H](NC(=O)[C@@H](NC(=O)[C@H](Cc1ccccc1)NC(=O)CN)[C@@H](C)CC)C(C)C)C(=O)N[C@@H](CC(C)C)C(=O)N[C@H](C(=O)O)C(C)C (H-GFIVKRFKILV-OH) | > 97 µM | > 100 µM | 97 µM (≈ 128 µg/mL) | Activity [11]: 100%; hemolysis at 1 h, 100 µM [12]: 30% |
| CC[C@H](C)[C@H](N)C(=O)N[C@@H](CCCCN)C(=O)N[C@H](C(=O)N[C@H](C(=O)N[C@@H](C)C(=O)N1CCC[C@H]1C(=O)N[C@@H](CCCCN)C(=O)N[C@@H](CCCCN)C(=O)N[C@H](C(=O)N[C@@H](CCCCN)C(=O)N[C@@H](CC(C)C)C(=O)O)[C@@H](C)CC)C(C)C)[C@@H](C)CC (H-IKIVAPKKIKL-OH) | > 102 µM | > 100 µM | > 102 µM |  |
| CC[C@H](C)[C@H](N)C(=O)N[C@@H](CO)C(=O)N[C@@H](CCCNC(=N)N)C(=O)N[C@@H](C)C(=O)N[C@@H](CS)C(=O)N[C@@H](CC(C)C)C(=O)N[C@H](C(=O)N[C@@H](CCSC)C(=O)N[C@@H](CCCCN)C(=O)N[C@H](C(=O)N[C@@H](CCCNC(=N)N)C(=O)N[C@@H](CCCNC(=N)N)C(=O)N[C@@H](CCCCN)C(=O)N[C@@H](CCCCN)C(=O)O)C(C)C)[C@@H](C)CC (H-ISRACLIMKVRRKK-OH) | 37.6 µM (≈ 64 µg/mL) | 12.5 µM (≈ 21.3 µg/mL) | 9.4 µM (≈ 16 µg/mL) |  |
| CC[C@H](C)[C@H](NC(=O)[C@@H](NC(=O)[C@H](CCCCN)NC(=O)[C@H](CCCCN)NC(=O)[C@H](Cc1ccccc1)NC(=O)[C@@H](N)CCCCN)C(C)C)C(=O)N[C@@H](Cc1c[nH]c2ccccc12)C(=O)N[C@@H](CCCCN)C(=O)N[C@@H](CO)C(=O)N[C@@H](Cc1ccccc1)C(=O)N[C@@H](CC(C)C)C(=O)O (H-KFKKVIWKSFL-OH) | 90 µM (≈ 128 µg/mL) | 12.5 µM (≈ 17.8 µg/mL) | 45 µM (≈ 64.1 µg/mL) | hemolysis at 1 h, 50 µM [13]: 50%; viability at 48 h [9]: 100% |
| CC[C@H](C)[C@H](NC(=O)[C@@H](N)CC(C)C)C(=O)N[C@H](C(=O)N[C@@H](CC(C)C)C(=O)N[C@H](C(=O)N[C@@H](CS)C(=O)N[C@@H](CCCNC(=N)N)C(=O)N[C@@H](CCCCN)C(=O)N[C@@H](CCCCN)C(=O)N[C@@H](CCCCN)C(=O)N[C@@H](CCCCN)C(=O)N1CCC[C@H]1C(=O)N[C@@H](Cc1ccccc1)C(=O)O)[C@@H](C)O)C(C)C (H-LIVLTCRKKKKPF-OH) | > 81 µM | 12.5 µM (≈ 19.7 µg/mL) | 40.7 µM (≈ 64.1 µg/mL) | Activity [11]: 100% |
| CC[C@H](C)[C@H](NC(=O)CNC(=O)[C@@H](NC(=O)[C@H](CCCCN)NC(=O)[C@@H](NC(=O)CNC(=O)[C@H](CC(C)C)NC(=O)[C@H](Cc1c[nH]c2ccccc12)NC(=O)[C@H](CCCNC(=N)N)NC(=O)[C@@H](N)CC(C)C)[C@@H](C)O)C(C)C)C(=O)N[C@@H](CC(C)C)C(=O)N[C@@H](CCCCN)C(=O)O (H-LRWLGTKVGILK-OH) | > 92 µM | > 100 µM | > 92 µM |  |
| CC[C@H](C)[C@H](NC(=O)[C@@H](NC(=O)[C@H](CCCNC(=N)N)NC(=O)[C@@H](NC(=O)[C@H](CCCNC(=N)N)NC(=O)[C@H](CCCNC(=N)N)NC(=O)[C@@H](NC(=O)[C@H](CCCNC(=N)N)NC(=O)[C@@H](NC(=O)[C@H](CC(C)C)NC(=O)[C@@H](NC(=O)[C@@H]1CCCN1C(=O)[C@@H](N)CCCNC(=N)N)[C@@H](C)CC)[C@@H](C)CC)C(C)C)[C@@H](C)CC)C(C)C)C(=O)O (H-RPILIRVRRIRVI-OH) | 77.1 µM (≈ 128 µg/mL) | > 100 µM | 9.7 µM (≈ 16.1 µg/mL) | Activity [11]: Toxic |
| CC(C)C[C@H](NC(=O)[C@H](Cc1ccccc1)NC(=O)[C@H](CS)NC(=O)[C@@H](NC(=O)[C@H](CC(C)C)NC(=O)[C@H](CCCNC(=N)N)NC(=O)[C@H](Cc1c[nH]c2ccccc12)NC(=O)[C@@H](N)CCCNC(=N)N)C(C)C)C(=O)N[C@@H](CS)C(=O)N[C@@H](CCCNC(=N)N)C(=O)N[C@@H](CCCNC(=N)N)C(=O)N[C@@H](CCCCN)C(=O)N[C@@H](CCCCN)C(=O)N[C@H](C(=O)O)C(C)C (H-RWRLVCFLCRRKKV-OH) | 17.2 µM (≈ 32.1 µg/mL) | 6.3 µM (≈ 11.7 µg/mL) | 8.6 µM (≈ 16 µg/mL) | Activity (Bacillus subtilis [3]): Active; hemolysis at 1 h, 100 µM [12]: 30%; Activity (Lipid bilayer [4]): inactive; Activity (Lipid bilayer [5]): Dose-dependent effect; Activity (Lipid bilayer [6]): Dose-dependent effect; Activity (Lipid bilayer [7]): Dose-dependent effect; viability at 48 h [9]: 100%; Activity (Escherichia coli [10]): Active |
| CC[C@H](C)[C@H](NC(=O)[C@H](CCCCN)NC(=O)[C@@H](N)Cc1c[nH]c2ccccc12)C(=O)N[C@@H](Cc1ccccc1)C(=O)N[C@@H](CCCCN)C(=O)N[C@@H](CC(C)C)C(=O)N[C@@H](CCCCN)C(=O)N[C@@H](CC(C)C)C(=O)N[C@@H](CCCNC(=N)N)C(=O)N[C@@H](CCSC)C(=O)N[C@@H](CC(C)C)C(=O)N[C@@H](Cc1c[nH]c2ccccc12)C(=O)O (H-WKIFKLKLRMLW-OH) | 77 µM (≈ 128 µg/mL) | 50 µM (≈ 83.1 µg/mL) | 38.5 µM (≈ 64 µg/mL) | hemolysis at 1 h, 6.25 µM [14]: 50% |
| CC[C@H](C)[C@H](NC(=O)CNC(=O)[C@H](C)NC(=O)[C@H](Cc1cnc[nH]1)NC(=O)[C@@H](NC(=O)[C@H](CCCCN)NC(=O)[C@H](Cc1ccc(O)cc1)NC(=O)[C@@H]1CCCN1C(=O)[C@@H](NC(=O)[C@H](CC(C)C)NC(=O)[C@H](CCCCN)NC(=O)[C@H](CCCCN)NC(=O)[C@@H](N)Cc1c[nH]c2ccccc12)C(C)C)[C@@H](C)CC)C(=O)O (H-WKKLVPYKIHAGI-OH) | > 82 µM | > 100 µM | > 82 µM |  |
| CC[C@H](C)[C@H](NC(=O)CN)C(=O)NCC(=O)N[C@@H](C)C(=O)N[C@H](C(=O)N[C@@H](CC(C)C)C(=O)N[C@@H](CCCCN)C(=O)N[C@H](C(=O)N[C@@H](CC(C)C)C(=O)N[C@H](C(=O)N[C@H](C(=O)NCC(=O)N[C@@H](CC(C)C)C(=O)N1CCC[C@H]1C(=O)N[C@@H](C)C(=O)N[C@@H](CC(C)C)C(=O)N[C@H](C(=O)N[C@@H](CO)C(=O)N[C@@H](Cc1c[nH]c2ccccc12)C(=O)N[C@H](C(=O)N[C@@H](CCCCN)C(=O)N[C@@H](CCCNC(=N)N)C(=O)N[C@@H](CCCCN)C(=O)N[C@@H](CCCNC(=N)N)C(=O)N[C@@H](CCC(N)=O)C(=O)N[C@@H](CCC(N)=O)C(N)=O)[C@@H](C)CC)[C@@H](C)CC)[C@@H](C)O)[C@@H](C)O)C(C)C)C(C)C [MELITTIN] |  | 2 µM (≈ 5.69 µg/mL) |  |  |
